According to article PMC8907111 (Biochemical and Biophysical Research Communications, 2022):

Molecular target: SARS-CoV-2 M^pro (Severe acute respiratory syndrome coronavirus 2, UniProt P0DTD1)
Assay: FRET protease enzymatic inhibition assay
Format: biochemical
Details: for inhibition at 50 µM: read-out: M^pro Inhibition rate at 50 μM; for M^pro Inhibition rate at 50 μM: compound at 50 μM, FRET assay

Compound | M^pro Inhibition rate at 50 μM | further results
O=c1cc(-c2ccccc2)oc2cc(O)c(O)c(O)c12 [Compound 8, Baicalein, reference compound] |  | inhibition at 50 µM: 103%
O=c1cc(-c2ccc(O)cc2)oc2cc(O)c(O)c(O)c12 [Compound 1, Scutellarein] |  | inhibition at 50 µM: 102%
COc1ccc(-c2cc(=O)c3c(OC)c(OC)c(OC)cc3o2)cc1 [Compound 7, 5,6,7,4'-tetramethoxyflavone] | reduced rates of inhibition | 
COc1ccc(-c2cc(=O)c3c(O)c(OC)c(OC)cc3o2)cc1 [Compound 6, Salvigenin] | reduced rates of inhibition | 
COc1c(O)cc2oc(-c3ccc(O)cc3)cc(=O)c2c1O [Compound 2, Hispidulin] | reduced rates of inhibition | 
COc1ccc(-c2cc(=O)c3c(O)c(OC)c(O)cc3o2)cc1 [Compound 3, Pectolinarigenin] | reduced rates of inhibition | 
COc1ccc(-c2cc(=O)c3c(OC)c(O)c(O)cc3o2)cc1 [Compound 5, 6,7-dihydroxy-5-methoxy-2-(4-methoxyphenyl) chromone] |  | IC50: 16.7 ± 2.09 µM
